One series has as its system rat heart. Conditions: isolated rat heart; cited from earlier work.

Counter-ions that a name gives are not always drawn.

Here are results for 8 compounds from patent US6504057B2, “Fluorophenyl-substituted alkenylcarboxylic acid guanidides, process for their preparation, their use as a medicament or diagnostic, and medicament containing them” (Hoechst Aktiengesellschaft, priority 1995, dated 2003).

Consider `NC(N)=NC(=O)/C=C/c1cccc(F)c1` (as salt: hydrochloride) [Example 1, E-3-(3-Fluorophenyl)acrylic acid guanidide hydrochloride], for which the melting point was determined as 148 °C. `NC(N)=NC(=O)/C=C/c1cc(F)ccc1F` (as salt: hydrochloride) [Example 2, E-3-(2,5-Difluorophenyl)acrylic acid guanidide hydrochloride] displayed a melting point of 230 °C. Still for that read-out and setting: the same measure for `NC(N)=NC(=O)/C=C/c1cc(F)cc(F)c1` (as salt: hydrochloride) [Example 3, E-3-(3,5-Difluorophenyl) acrylic acid guanidide hydrochloride]: 235 °C; for `NC(N)=NC(=O)/C=C/c1ccccc1F` (as salt: hydrochloride) [Example 4, E-3-(2-Fluorophenyl)acrylic acid guanidide hydrochloride]: 243 °C; for `C/C(=C\c1cc(F)cc(F)c1)C(=O)N=C(N)N` (as salt: hydrochloride) [Example 5, E-3-(3,5-Difluorophenyl)-2-methylacrylic acid guanidide hydrochloride]: 178 °C. On to `C/C(=C\c1c(F)c(F)cc(F)c1F)C(=O)N=C(N)N` (as salt: hydrochloride) [Example 9, E-3-(2,3,5,6-Tetrafluorophenyl)-2-methylacrylic acid guanidide hydrochloride], for which the melting point was determined as 138 °C. Turning to `N=C(N)NC(=O)c1nc(Cl)c(N)nc1N` [amiloride], the “suppression of artificially produced ventricular fibrillation” value in the series on rat heart is “completely suppressed”. As for `CCN(c1nc(N)c(C(=O)NC(=N)N)nc1Cl)C(C)C` [ethylisopropylamiloride], the “suppression of artificially produced ventricular fibrillation” value in the series on rat heart was “even more potent than amiloride”.
